In US20210378985A1, “METHOD AND COMPOUND FOR THE TREATMENT OF HEPATITIS C” (priority 2020, published 2021):

Columns and labels:
HCV subgenomic replicon = details: at both mRNA and protein level; cited from earlier work
[1] = tested on: core protein in Huh 7 cells; details: cited from earlier work
HIV-1 [2] = test: Cell-based time course study (mode of action); details: drug addition at various time points
Source text: The time course study may be an important tool for the determination of viral kinetics and drug mode of action. The dynamics of drug-virus interaction, competitive or non-competitive, kinetics provides a dose response curve from which a broad lead mechanism of action can be drawn. The dynamics of the interactions relate to the viral kinetic of infection and drug addition at various time points.

gamma interferon = test: Gamma interferon production stimulated by 90I; type: cell-based; details: versus positive control PMA-Ionomycin combination
HIV-1 [3] = test: Co-cultivation of HIV-1 infected cells with uninfected target cells; type: cell-based
Source text: Viral pathogenesis in co-cultivation of infected cells with uninfected target cells presents a complex system with several target sites (attachment, fusion, transcription, processing, packaging and budding).
In many documented antiretroviral studies, the co-culture system is conventionally used to isolate the virus as well as to study cell-to-cell transmission or to determine if a given compound blocks cell fusion.

## C[C@@H]1CC[C@@]2(OC1)O[C@H]1C[C@H]3[C@@H]4CC=C5C[C@@H](O)CC[C@]5(C)[C@H]4CC[C@]3(C)[C@H]1[C@@H]2C [Diosgenin]
HCV subgenomic replicon
  replication of HCV subgenomic replicon: effectively blocked the replication of the HCV subgenomic replicon

## O=C1C[C@@H](c2ccc(O)cc2)Oc2cc(O)cc(O)c21 [Naringenin]
[1]; Huh 7 cells
  activity of core protein: suppressed the activity of core protein
[1]
  assembly of HCV particles: effectively blocked the assembly of HCV particles

## O=C(OCCOCCOC(=O)c1ccccc1)c1ccccc1 [Compound 90I, diethylene glycol dibenzoate]
HIV-1 [2]
  mode of action (early/late): works both early and late
Gamma interferon
  amount of gamma interferon produced: equivalent to that of the positive control
HIV-1 [3]
  syncytium formation: drastic drop of syncytium formation
HIV-1 [3]; exponential cell growth dynamics
  cell viability: greater than ninety percent
